Laboratory results taken from paper PMC5228208 (MedChemComm, 2016).

Legend:
[1] = system: HIV RT RNaseH; assay type: binding, HIV-1; settings: natural product
[2] = system: HIV; settings: natural products; reported previously, ref [10a]; cited from earlier work

| Compound | HIV RT RNaseH Assays ThermoFluor ΔTm [1] [°C] | Cell-Based Assays Antiviral EC50 [2] |
| --- | --- | --- |
| CC(C)c1ccc(O)c(=O)c(O)c1 [β-thujaplicinol] | 2.34 | n.p. (‘n.p.’ indicates no protective effects (<35% cell viability throughout assay)) |
| manicol |  | n.p. (‘n.p.’ indicates no protective effects (<35% cell viability throughout assay)) |
